One substance from publication PMC3523387 (Planta medica, 2012) can be followed below.

The target of the assay is T1, protein tyrosine phosphatase 1B (PTP1B) (Homo sapiens, UniProt P18031).
T1 sequence (P18031 1-435): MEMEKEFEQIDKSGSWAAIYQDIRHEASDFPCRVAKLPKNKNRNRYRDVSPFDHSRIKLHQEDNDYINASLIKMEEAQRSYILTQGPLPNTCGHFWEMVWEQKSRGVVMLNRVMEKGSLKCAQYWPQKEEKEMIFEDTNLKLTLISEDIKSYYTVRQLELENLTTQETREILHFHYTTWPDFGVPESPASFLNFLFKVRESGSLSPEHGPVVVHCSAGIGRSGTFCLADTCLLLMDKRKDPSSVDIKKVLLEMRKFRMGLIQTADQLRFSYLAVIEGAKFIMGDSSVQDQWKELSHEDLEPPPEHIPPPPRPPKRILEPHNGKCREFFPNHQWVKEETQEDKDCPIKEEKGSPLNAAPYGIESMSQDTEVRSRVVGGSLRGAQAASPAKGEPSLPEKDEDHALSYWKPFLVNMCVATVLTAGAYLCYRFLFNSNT
The assay can be described thus: colorimetric pNPP hydrolysis assay with human recombinant PTP1B, dose-response. The format is biochemical.

As to ratanhiaphenol III [compound 9], the IC50 was found to be 20.2 µM.
